Reference: patent US20050112573A1, “Method of detecting toxic substance” (priority 2001, published 2005)

Tested on: yeast genes (level of expressed mRNA)
Assay: DNA chip analysis of expressed mRNA of yeast genes after 2 h culture with a toxic chemical substance
Format: cell-based, Saccharomyces cerevisiae S288C
Description: Yeast (Saccharomyces cerevtisiae S288C (α SUC2mal mel gap2 CUP1)) were cultured at 25° C. on YPD medium (yeast extract 1%, polypepton 2%, glucose 2%). One of toxic chemical substances was added to the cell at logarithmic growth phase, and the cell was further cultured for two hours. Cell was cultured without any chemical substance in the same condition, and was used as control. Concentrations of the chemical substances were defined to inhibit the growth of the yeast but not lead to death.
After the completion of cultivation, the culture was centrifuged to collect the cells. To the cells, sodium acetate buffer (50 mM sodium acetate, 10 mM EDTA, 1% SDS) was added, and the mixture was shaken at 65° C. for five minutes, followed by returning to room temperature, and obtaining the supernatant, which procedure was repeated two times. To the supernatant, ½ amount of a solution of phenol/chloroform was added, and the mixture was centrifuged to give a supernatant, which was added with an equal amount of chloroform, and the mixture was centrifuged to give a supernatant. To the supernatant, an equal amount of isopropanol containing 0.3 M sodium acetate was added, and the mixture was allowed to stand at room temperature for 30 minutes, after which the mixture was centrifuged to give a sediment of the whole RNAs. Seventy % ethanol was added to the sediment, and the mixture was again centrifuged to give a sediment, which was then dried and dissolved in water. mRNA was isolated from the whole RNAs as followings. In view of the fact that a poly A chain is attached to the 3′ terminus of mRNA, a polynucleotide having a poly T structure which was immobilized on the surface of latex beads was used to trap the mRNA, and then the mRNA was washed and eluted with spine column (Oligotex-dT30<Super>mRNA Purification Kit, Takara). Reverse transcription of the mRNA was conducted with a reverse transcriptase (Super Script II Reverse Transcriptase; catalogue No. 18064-014, GibcoBRL) using fluorescence-labeled nucleotides to give cDNAs that were introduced with Cy3-dUTP or Cy5-dUTP during the reverse transcription.
The labeled cDNAs were dissolved in TE buffer (10 mM Tris-HCl/1 mM EDTA, pH8.0), and the solution was dropped on the DNA chip containing the whole genes of yeast (DNA Chip Research Inc. Japan) so that the cDNAs were hybridized on the DNA chip at 65° C. for over 12 hours. The fluoresces intensity of the DNA chip was read with a scanner, and the ratio relative to the fluorescence intensity resulting from the absence of chemical substance was estimated as the following, which is shown in Tables 1 to 9: [formula]
In the Tables, “Intensity” indicated in the rightmost column is a value of the level of expressed mRNA of each gene in control cells as divided by the average level of the expressions of the whole genes.

CdCl2 [(2)]
The level of expressed mRNA in the presence of chemical substance/ (yeast gene YFL010C, ratio to control without chemical substance, 2 h culture): 4.8 | The level of expressed mRNA in the presence of chemical substance/ (yeast gene YFL024C, ratio to control without chemical substance, 2 h culture): 1.1 | The level of expressed mRNA in the presence of chemical substance/The level of expressed mRNA in the absence of chemical substance (yeast gene YFL028C): 1.1 | The level of expressed mRNA in the presence of chemical substance/ (yeast gene YFL032W, ratio to control without chemical substance, 2 h culture): 1.5 | The level of expressed mRNA in the presence of chemical substance/The level of expressed mRNA in the absence of chemical substance (yeast gene YFL043C): 1.2 | The level of expressed mRNA in the presence of chemical substance/in the absence of chemical substance (yeast gene YGL035C): 1.4 | The level of expressed mRNA in the presence of chemical substance/ (yeast gene YGL037C, ratio to control without chemical substance, 2 h culture): 2.7 | The level of expressed mRNA in the presence of chemical substance/ (yeast gene YGL047W, ratio to control without chemical substance, 2 h culture): 1.9 | The level of expressed mRNA in the presence of chemical substance/ (yeast gene YGL053W, ratio to control without chemical substance, 2 h culture): 1.5 | The level of expressed mRNA in the presence of chemical substance/ (yeast gene YGL121C, ratio to control without chemical substance, 2 h culture): 5.0 | The level of expressed mRNA in the presence of chemical substance/The level of expressed mRNA in the absence of chemical substance (yeast gene YGL158W): 2.8 | The level of expressed mRNA in the presence of chemical substance/ (yeast gene YGL199C, ratio to control without chemical substance, 2 h culture): 1.7 | The level of expressed mRNA in the presence of chemical substance/The level of expressed mRNA in the absence of chemical substance (yeast gene YGL229C): 0.7 | The level of expressed mRNA in the presence of chemical substance/ (yeast gene YGR101W, ratio to control without chemical substance, 2 h culture): 1.3 | The level of expressed mRNA in the presence of chemical substance/ (yeast gene YGR110W, ratio to control without chemical substance, 2 h culture): 3.1 | The level of expressed mRNA in the presence of chemical substance/ (yeast gene YGR130C, ratio to control without chemical substance, 2 h culture): 0.7 | The level of expressed mRNA in the presence of chemical substance/The level of expressed mRNA in the absence of chemical substance (yeast gene YGR136W): 1.2 | The level of expressed mRNA in the presence of chemical substance/ (yeast gene YGR154C, ratio to control without chemical substance, 2 h culture): 2.9 | The level of expressed mRNA in the presence of chemical substance/The level of expressed mRNA in the absence of chemical substance (yeast gene YGR189C): 0.9 | The level of expressed mRNA in the presence of chemical substance/The level of expressed mRNA in the absence of chemical substance (yeast gene YGR213C): 2.9 | The level of expressed mRNA in the presence of chemical substance/ (yeast gene YGR221C, ratio to control without chemical substance, 2 h culture): 2.2 | The level of expressed mRNA in the presence of chemical substance/The level of expressed mRNA in the absence of chemical substance (yeast gene YGR257C): 0.8 | The level of expressed mRNA in the presence of chemical substance/in the absence of chemical substance (yeast gene YGR287C): 1.0 | The level of expressed mRNA in the presence of chemical substance/The level of expressed mRNA in the absence of chemical substance (yeast gene YHR004C): 1.1 | The level of expressed mRNA in the presence of chemical substance/The level of expressed mRNA in the absence of chemical substance (yeast gene YHR071W): 1.1 | The level of expressed mRNA in the presence of chemical substance/ (yeast gene YHR138C, ratio to control without chemical substance, 2 h culture): 1.8 | The level of expressed mRNA in the presence of chemical substance/The level of expressed mRNA in the absence of chemical substance (yeast gene YHR139C): 4.6 | The level of expressed mRNA in the presence of chemical substance/The level of expressed mRNA in the absence of chemical substance (yeast gene YHR142W): 0.8 | The level of expressed mRNA in the presence of chemical substance/ (yeast gene YHR199C, ratio to control without chemical substance, 2 h culture): 2.0 | The level of expressed mRNA in the presence of chemical substance/ (yeast gene YIL023C, ratio to control without chemical): 1.2 | The level of expressed mRNA in the presence of chemical substance/ (yeast gene YIL041W, ratio to control without chemical substance, 2 h culture): 1.2 | The level of expressed mRNA in the presence of chemical substance/ (yeast gene YIL087C, ratio to control without chemical substance, 2 h culture): 1.9 | The level of expressed mRNA in the presence of chemical substance/The level of expressed mRNA in the absence of chemical substance (yeast gene YIL123W): 0.5 | The level of expressed mRNA in the presence of chemical substance/The level of expressed mRNA in the absence of chemical substance (yeast gene YIL140W): 1.0 | The level of expressed mRNA in the presence of chemical substance/ (yeast gene YJL057C, ratio to control without chemical substance, 2 h culture): 1.2 | The level of expressed mRNA in the presence of chemical substance/ (yeast gene YJL066C, ratio to control without chemical substance, 2 h culture): 1.2 | The level of expressed mRNA in the presence of chemical substance/in the absence of chemical substance (yeast gene YJL070C): 0.9 | The level of expressed mRNA in the presence of chemical substance/The level of expressed mRNA in the absence of chemical substance (yeast gene YJL073W): 0.8 | The level of expressed mRNA in the presence of chemical substance/ (yeast gene YJL082W, ratio to control without chemical substance, 2 h culture): 0.8 | The level of expressed mRNA in the presence of chemical substance/The level of expressed mRNA in the absence of chemical substance (yeast gene YJL089W): 1.5 | The level of expressed mRNA in the presence of chemical substance/The level of expressed mRNA in the absence of chemical substance (yeast gene YJL116C): 1.8 | The level of expressed mRNA in the presence of chemical substance/ (yeast gene YJL151C, ratio to control without chemical substance, 2 h culture): 2.4 | The level of expressed mRNA in the presence of chemical substance/ (yeast gene YJL152W, ratio to control without chemical substance, 2 h culture): 1.5 | The level of expressed mRNA in the presence of chemical substance/ (yeast gene YJL161W, ratio to control without chemical substance, 2 h culture): 2.2 | The level of expressed mRNA in the presence of chemical substance/in the absence of chemical substance (yeast gene YJL167W): 1.4 | The level of expressed mRNA in the presence of chemical substance/ (yeast gene YJL171C, ratio to control without chemical substance, 2 h culture): 0.7 | The level of expressed mRNA in the presence of chemical substance/in the absence of chemical substance (yeast gene YJL216C): 4.7 | The level of expressed mRNA in the presence of chemical substance/The level of expressed mRNA in the absence of chemical substance (yeast gene YJR004C): 0.8 | The level of expressed mRNA in the presence of chemical substance/ (yeast gene YJR008W, ratio to control without chemical substance, 2 h culture): 1.5 | The level of expressed mRNA in the presence of chemical substance/ (yeast gene YJR054W, ratio to control without chemical): 0.9 | The level of expressed mRNA in the presence of chemical substance/The level of expressed mRNA in the absence of chemical substance (yeast gene YJR086W): 1.1 | The level of expressed mRNA in the presence of chemical substance/The level of expressed mRNA in the absence of chemical substance (yeast gene YKL008C): 0.6 | The level of expressed mRNA in the presence of chemical substance/The level of expressed mRNA in the absence of chemical substance (yeast gene YKL013C): 0.9 | The level of expressed mRNA in the presence of chemical substance/The level of expressed mRNA in the absence of chemical substance (yeast gene YKL039W): 1.1 | The level of expressed mRNA in the presence of chemical substance/The level of expressed mRNA in the absence of chemical substance (yeast gene YKL041W): 0.8 | The level of expressed mRNA in the presence of chemical substance/ (yeast gene YKL071W, ratio to control without chemical substance, 2 h culture): 3.8
